Key:
[1] = molecular target: T1, Bovine lysyl oxidase (LOX) (Bos taurus, UniProt P33072); test: LOX inhibition assay (fluorometric, cadaverine/Amplex Red/HRP); assay type: biochemical; details: IC50 class; bovine tendon LOX, cadaverine substrate; read-out: Activity Range LOX
T1 construct: from tissue; host or cells: adult bovine tendon
T1 sequence (P33072 170-418): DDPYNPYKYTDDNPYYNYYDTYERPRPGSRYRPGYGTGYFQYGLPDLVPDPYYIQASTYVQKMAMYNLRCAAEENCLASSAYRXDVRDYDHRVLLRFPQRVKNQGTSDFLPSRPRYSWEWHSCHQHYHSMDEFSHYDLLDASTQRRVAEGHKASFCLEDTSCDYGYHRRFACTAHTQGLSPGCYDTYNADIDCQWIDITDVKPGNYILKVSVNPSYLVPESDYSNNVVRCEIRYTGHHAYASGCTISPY
Outline: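 Bovine tendon-extracted LOX was preincubated 30 min at 37 °C with compound. Cadaverine/Amplex Red/HRP was then added and fluorescence (ex530/em600) monitored for 120 min at 37 °C. Progress-curve slopes, background-subtracted against no-protein wells, were normalised to DMSO controls and fitted with a four-parameter variable-slope dose-response model.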

[2] = molecular target: T2, Recombinant human LOXL2 (lysyl oxidase like 2) (Homo sapiens, UniProt Q9Y4K0); test: LOXL2 inhibition assay (fluorometric, cadaverine/Amplex Red/HRP); assay type: biochemical; details: IC50 class; recombinant human LOXL2, cadaverine substrate; read-out: Activity Range LOXL2
T2 construct: purchased R&D systems
T2 sequence (Q9Y4K0 26-774): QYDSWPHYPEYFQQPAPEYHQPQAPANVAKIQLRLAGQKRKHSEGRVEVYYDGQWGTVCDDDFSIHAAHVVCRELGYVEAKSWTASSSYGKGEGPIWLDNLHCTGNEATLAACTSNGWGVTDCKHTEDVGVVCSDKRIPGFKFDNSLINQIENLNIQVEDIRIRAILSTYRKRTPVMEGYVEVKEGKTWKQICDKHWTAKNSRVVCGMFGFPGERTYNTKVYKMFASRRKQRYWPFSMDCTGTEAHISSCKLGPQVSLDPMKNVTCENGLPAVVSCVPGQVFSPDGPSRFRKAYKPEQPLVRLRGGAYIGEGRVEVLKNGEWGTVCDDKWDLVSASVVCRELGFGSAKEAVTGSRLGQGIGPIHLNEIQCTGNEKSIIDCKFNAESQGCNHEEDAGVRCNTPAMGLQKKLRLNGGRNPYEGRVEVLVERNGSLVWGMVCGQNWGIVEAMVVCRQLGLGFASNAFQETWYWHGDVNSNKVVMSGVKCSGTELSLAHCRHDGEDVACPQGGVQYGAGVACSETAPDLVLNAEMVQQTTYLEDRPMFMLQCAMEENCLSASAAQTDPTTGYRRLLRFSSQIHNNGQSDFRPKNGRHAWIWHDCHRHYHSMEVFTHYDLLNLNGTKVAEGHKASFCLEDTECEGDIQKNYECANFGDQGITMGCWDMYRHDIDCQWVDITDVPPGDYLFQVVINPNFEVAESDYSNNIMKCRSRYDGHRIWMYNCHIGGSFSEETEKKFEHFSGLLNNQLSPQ
Outline: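 Both enzymes assayed in 1.2 M urea, 50 mM sodium borate pH 8.0, 10 mM CaCl, with 30 min compound–enzyme preincubation at 37° C before cadaverine/Amplex Red/HRP addition. Fluorescence followed 60 min at 37° C; linear-slope rates, background-subtracted, as % of DMSO control, fitted by 4-parameter variable-slope curve (bottom fixed at 0).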

**Q.** Which IC50 [1] does the source give for `NCc1cc(S(=O)(=O)N2C[C@H](C(=O)N3CCS(=O)(=O)CC3)C[C@@H](c3ccccc3)C2)ccn1` (racemic) [Example 130T, trans-(1-((2-(Aminomethyl)pyridin-4-yl)sulfonyl)-5-phenylpiperidin-3-yl)(1,1-dioxidothiomorpholino)methanone 2,2,2-trifluoroacetate] here?
**A.** 1 to 30 µM

**Q.** And the IC50 [2]?
**A.** ≤ 0.5 µM

**Q.** For `NCc1cncc(S(=O)(=O)N2C[C@@H](C(=O)N3CCOCC3)C[C@@H](c3ccccc3)C2)c1` (racemic) [Example 131, cis-(1-((5-(Aminomethyl)pyridin-3-yl)sulfonyl)-5-phenylpiperidin-3-yl)(morpholino)methanone 2,2,2-trifluoroacetate], which IC50 [1] is on record?
**A.** > 30 µM

**Q.** And the IC50 [2]?
**A.** 1 to 30 µM

**Q.** Which IC50 [1] does the source give for `NCc1cncc(S(=O)(=O)N2C[C@@H](C(=O)N3CCS(=O)(=O)CC3)C[C@@H](c3ccccc3)C2)c1` (racemic) [Example 132, cis-(1-((5-(Aminomethyl)pyridin-3-yl)sulfonyl)-5-phenylpiperidin-3-yl)(1,1-dioxidothiomorpholino)methanone 2,2,2-trifluoroacetate] here?
**A.** > 30 µM

**Q.** And the IC50 [2]?
**A.** 1 to 30 µM

**Q.** How did the IC50 [1] turn out when `CN(C)C(=O)N1C[C@@H](C2CCCCC2)C[C@@H](S(=O)(=O)c2cccc(CN)c2)C1` (racemic) [Example 135, cis-3-((3-(Aminomethyl)phenyl)sulfonyl)-5-cyclohexyl-N,N-dimethylpiperidine-1-carboxamide] was run?
**A.** > 30 µM

**Q.** What about the IC50 [2] of the same compound?
**A.** ≤ 0.5 µM

**Q.** With `NCc1cccc(S(=O)(=O)[C@@H]2C[C@H](C3CCCCC3)CN(C(=O)N3CCS(=O)(=O)CC3)C2)c1` (racemic) [Example 137, cis-(3-((3-(Aminomethyl)phenyl)sulfonyl)-5-cyclohexylpiperidin-1-yl)(1,1-dioxidothiomorpholino)methanone] as the compound, how does the IC50 [1] read?
**A.** > 30 µM

**Q.** And the IC50 [2]?
**A.** ≤ 0.5 µM

**Q.** How did the IC50 [1] turn out when `NCc1cccc(S(=O)(=O)[C@H]2C[C@H](C3CCCCC3)CN(C(=O)N3CCS(=O)(=O)CC3)C2)c1` (racemic) [Example 137T, trans-(3-((3-(Aminomethyl)phenyl)sulfonyl)-5-cyclohexylpiperidin-1-yl)(1,1-dioxidothiomorpholino)methanone] was run?
**A.** > 30 µM

**Q.** And the IC50 [2]?
**A.** ≤ 0.5 µM

**Q.** Which IC50 [1] does the source give for `CN(C)C(=O)[C@@H]1C[C@H](S(=O)(=O)c2cccc(CN)c2)CN(C2CCCCC2)C1` (racemic) [Example 141, cis-5-((3-(Aminomethyl)phenyl)sulfonyl)-1-cyclohexyl-N,N-dimethylpiperidine-3-carboxamide] here?
**A.** > 30 µM

**Q.** What about the IC50 [2] of the same compound?
**A.** ≤ 0.5 µM

**Q.** Which results are given for `CN(C)C(=O)[C@H]1C[C@H](S(=O)(=O)c2cccc(CN)c2)CN(C2CCCCC2)C1` (racemic) [Example 141T, trans-5-((3-(Aminomethyl)phenyl)sulfonyl)-1-cyclohexyl-N,N-dimethylpiperidine-3-carboxamide]?
**A.** IC50 [1]: > 30 µM; IC50 [2]: ≤ 0.5 µM

**Q.** For `NCc1cccc(S(=O)(=O)[C@H]2C[C@@H](C(=O)N3CCOCC3)CN(C3CCCCC3)C2)c1` (racemic) [Example 142, cis-(5-((3-(Aminomethyl)phenyl)sulfonyl)-1-cyclohexylpiperidin-3-yl)(morpholino)methanone 2,2,2-trifluoroacetate], which IC50 [1] is on record?
**A.** > 30 µM

**Q.** What about the IC50 [2] of the same compound?
**A.** ≤ 0.5 µM

**Q.** For `NCc1cccc(S(=O)(=O)[C@H]2C[C@H](C(=O)N3CCOCC3)CN(C3CCCCC3)C2)c1` (racemic) [Example 142T, trans-(5-((3-(Aminomethyl)phenyl)sulfonyl)-1-cyclohexylpiperidin-3-yl)(morpholino)methanone 2,2,2-trifluoroacetate], which IC50 [1] is on record?
**A.** > 30 µM

**Q.** And the IC50 [2]?
**A.** ≤ 0.5 µM

**Q.** What does the source list for `NCc1cccc(S(=O)(=O)[C@H]2C[C@@H](C(=O)N3CCS(=O)(=O)CC3)CN(C3CCCCC3)C2)c1` (racemic) [Example 143, cis-(5-((3-(Aminomethyl)phenyl)sulfonyl)-1-cyclohexylpiperidin-3-yl)(1,1-dioxidothiomorpholino)methanone 2,2,2-trifluoroacetate]?
**A.** IC50 [1]: > 30 µM; IC50 [2]: ≤ 0.5 µM

**Q.** For `NCc1ccnc(S(=O)(=O)N2C[C@@H](C(=O)N3CCS(=O)(=O)CC3)C[C@@H](N3CCCCC3)C2)c1` (racemic) [Example 148, cis-(1′-((4-(Aminomethyl)pyridin-2-yl)sulfonyl)-[1,3′-bipiperidin]-5′-yl)(1,1-dioxidothiomorpholino)methanone 2,2,2-trifluoroacetate], which IC50 [1] is on record?
**A.** 1 to 30 µM

**Q.** What about the IC50 [2] of the same compound?
**A.** ≤ 0.5 µM

**Q.** `CS(=O)(=O)N1CCN(C(=O)[C@H]2C[C@@H](N3CCCCC3)CN(S(=O)(=O)c3cc(CN)ccn3)C2)CC1` (racemic) [Example 149, cis-(1′-((4-(Aminomethyl)pyridin-2-yl)sulfonyl)-[1,3′-bipiperidin]-5′-yl)(4-(methylsulfonyl)piperazin-1-yl)methanone 2,2,2-trifluoroacetate] was tested. Which IC50 [1] did it give?
**A.** > 30 µM

**Q.** And the IC50 [2]?
**A.** 0.5 to 1 µM

**Q.** How did the IC50 [1] turn out when `CN1CCN(C(=O)[C@H]2C[C@@H](N3CCCCC3)CN(S(=O)(=O)c3cc(CN)ccn3)C2)CC1` (racemic) [Example 150, cis-(1′-((4-(Aminomethyl)pyridin-2-yl)sulfonyl)-[1,3′-bipiperidin]-5′-yl)(4-methylpiperazin-1-yl)methanone 2,2,2-trifluoroacetate] was run?
**A.** 1 to 30 µM

**Q.** What about the IC50 [2] of the same compound?
**A.** 0.5 to 1 µM

**Q.** Which results are given for `NCc1ccnc(S(=O)(=O)N2C[C@@H](C(=O)N3CCOCC3)C[C@@H](N3CCOCC3)C2)c1` (racemic) [Example 155, cis-(1-((4-(Aminomethyl)pyridin-2-yl)sulfonyl)-5-morpholinopiperidin-3-yl)(morpholino)methanone 2,2,2-trifluoroacetate]?
**A.** IC50 [1]: 1 to 30 µM; IC50 [2]: 0.5 to 1 µM

**Q.** How did the IC50 [1] turn out when `NCc1ccnc(S(=O)(=O)N2C[C@H](C(=O)N3CCOCC3)C[C@H](N3CCCCC3=O)C2)c1` (racemic) [Example 186, cis-1′-((4-(Aminomethyl)pyridin-2-yl)sulfonyl)-5′-(morpholine-4-carbonyl)-[1,3′-bipiperidin]-2-one 2,2,2-trifluoroacetate] was run?
**A.** 1 to 30 µM

**Q.** What about the IC50 [2] of the same compound?
**A.** ≤ 0.5 µM

**Q.** Which results are given for `NCc1ccnc(S(=O)(=O)N2C[C@@H](C(=O)N3CCS(=O)(=O)CC3)C[C@@H](N3CCCCC3=O)C2)c1` (racemic) [Example 187, cis-1′-((4-(Aminomethyl)pyridin-2-yl)sulfonyl)-5′-(1,1-dioxidothiomorpholine-4-carbonyl)-[1,3′-bipiperidin]-2-one 2,2,2-trifluoroacetate]?
**A.** IC50 [1]: 1 to 30 µM; IC50 [2]: ≤ 0.5 µM

**Q.** `NCc1cccc(S(=O)(=O)N2C[C@@H](C(=O)N3CCOCC3)C[C@@H](C(F)(F)F)C2)c1` (relative stereo) [Example 98, cis-(1-((3-(Aminomethyl)phenyl)sulfonyl)-5-(trifluoromethyl)piperidin-3-yl)(morpholino)methanone 2,2,2-trifluoroacetate] was tested. Which IC50 [1] did it give?
**A.** > 30 µM

**Q.** What about the IC50 [2] of the same compound?
**A.** 1 to 30 µM

**Q.** Which results are given for `NCc1ccc(S(=O)(=O)N2C[C@@H](C(=O)N3CCOCC3)C[C@@H](c3ccccc3)C2)s1` [Example 13A, ((3S,5S)-1-((5-(aminomethyl)thiophen-2-yl)sulfonyl)-5-phenylpiperidin-3-yl)(morpholino)methanone]?
**A.** IC50 [1]: ≤ 0.5 µM; IC50 [2]: ≤ 0.5 µM

From patent US20230310445A1, “LOX ENZYME INHIBITING METHODS AND COMPOSITIONS” (ANOVIA BIOSCIENCES, INC., priority 2020, published 2023)
